PMC5155426, “Organic Redox Species in Aqueous Flow Batteries: Redox Potentials, Chemical Stability and Solubility” (Scientific Reports, 2016)
Values after ≈ are worked out from the molar mass of the structure shown. Values joined by “and” are separate entries in the source; they are usually repeats but may differ in a detail not shown here. Equal entries are not always repeated.

How the values were obtained:
[1] = Cyclic voltammetry: formal redox potential, peak current ratio, electrochemical reversibility; assay type: physicochemical; details: for pH dependence (slope) of E0': pH 0 to pH 13; for formal redox potential E0': midpoint of CV peak potentials; for change of E0' from acidic (pH 0) to alkaline (pH 13): 13 pH units
Protocol: The investigated compounds were used as-purchased and without any purification. […] For each series of CVs, a freshly polished electrode was used. The CVs for soluble compounds in 1 mM concentration were recorded in a glass beaker with a customized lid in nitrogen purged solutions of three different pHs, namely pH 0 (1 M H2SO4), pH 7 (0.5 M phosphate buffer) and pH 13 (1 M NaOH). The pH of the NaOH solution is taken as 13 to account for carbonization of the solution with exposure to air. A background CV was recorded before each CV experiment to exclude background contaminations. The CVs of insoluble compounds in 1 M H2SO4, or 0.5 M phosphate buffer were recorded as follows: 6 mL of the supporting electrolyte was mixed with approximately 4 mL of acetone, and then a small amount of the quinone was added so that its concentration was around 1 mM.
Each CV was analyzed in terms of peak potentials and peak currents. Peak currents were determined by subtracting a polynomial fit of the background from the recorded current as exemplified in Supplementary, S1. A plot of the absolute values of the peak currents to the square root of the scan rate was constructed and, when reasonable, a linear fit included to evaluate the electrochemical (Nernstian) reversibility of the electrochemical reaction. The peak current Ip for reversible reactions are given by equation (1).
Where F is the Faraday constant, R the gas constant, T the temperature, n the number of electron transferred, A the area of the electrode, DOthe diffusion coefficient and CO^*the bulk concentration of the analyte and v the scan rate. The peak current ratio is expected to be close to one for reversible species. The formal redox potential (E^0’), which is the adjusted form of the standard redox potential, where effects of the medium is taken into account, is reported here as the midpoint potential between the two peak potentials in the CV[24]. All half-cell potentials in this work refer to the normal hydrogen electrode (VNHE).

[2] = Aqueous solubility estimation (OECD test #105) in 1 M supporting electrolytes
Protocol: After each addition the test tube was ultrasonicated and/or shaken vigorously using a Vortex Generator for at least 10 minutes at room temperature. Then the tube was inspected visually for undissolved sample and the addition of supporting electrolyte solution continued until the sample seemed just dissolved. The volumes just before and after full dissolution are used for calculating the solubility interval (Supplementary, S4 and S5) and the solubility is estimated as the average between the two.

[3] = pH 0 (1 M H2SO4), about 1 mM, acetone added for insoluble compounds
[4] = 1 M H2SO4 supporting electrolyte prepared from MilliQ water, aqueous buffer, thermodynamic from solid, Solubility, 1 M H2SO4, room temperature, interval just after / before full dissolution
[5] = 1 M KCl supporting electrolyte prepared from MilliQ water, saline or isotonic, thermodynamic from solid, Solubility, 1 M KCl, room temperature
[6] = 1 M KOH supporting electrolyte prepared from MilliQ water, aqueous buffer, thermodynamic from solid, Solubility, 1 M KOH, room temperature
[7] = water / supporting electrolytes as worded
[8] = aqueous buffer, thermodynamic from solid, Solubility
[9] = saline or isotonic, thermodynamic from solid, Solubility

| formal redox potential E0' ([1]; pH 13 (1 M NaOH)) | formal redox potential E0' [1, 3] | Electrochemical reversibility ([1]; pH not specified) | solubility [2, 4] | solubility [2, 5] | Peak current ratio ([1]; pH 0) | Peak current ratio ([1]; pH 7) | Peak current ratio ([1]; pH 13) | solubility [2, 6] | Electrochemical reversibility ([1]; pH 13) | formal redox potential E0' ([1]; pH 7 (0.5 M phosphate buffer)) | Compound | also measured |
| --- | --- | --- | --- | --- | --- | --- | --- | --- | --- | --- | --- | --- |
| – | 0.14(4) VNHE | Quasireversible | – | – | – | – | – | – | – | – | Nc1c(S(=O)(=O)[O-])cc(Br)c2c1C(=O)c1ccccc1C2=O.[Na+] [AQS(2)NBr, 1-amino-4-bromo-9,10-anthraquinone-2-sulfonate sodium] | – |
| – | 0.382(4) VNHE and 0.38 VNHE | Quasireversible | < 10 mM | < 10 mM | 0.87(4) | 1.1(2) | 0.8(1) | – | – | – | O=C1C=C(O)C(=O)C=C1O [BQ(1,4)DH, 2,5-dihydroxy-1,4-benzoquinone] | reduction of E0' compared to the parent BQ compound ([1]; pH 0): 300 mV; pH dependence (slope) of E0' [1]: ~−90 mV/pH unit |
| – | 0.308(4) VNHE | Quasireversible | < 10 mM | < 10 mM | 0.81(8) | 1.2(3) | 0.73(6) | 820 mM (≈ 143000 µg/mL) | seemingly reversible | – | O=C1C=C(O)C(=O)c2ccccc21 [NQ(1,4)H, 2-hydroxy-1,4-naphtoquinone] | change of E0' from acidic (pH 0) to alkaline (pH 13) [1]: 0.8 V; pH dependence (slope) of E0' [1]: 67 mV/pH unit |
| – | – | – | – | – | – | – | – | – | Irreversible | – | Oc1ccccc1O [HQ(1,2), Ortho hydroquinone] | Electrochemical reversibility ([1]; pH 0): Quasireversible; Electrochemical reversibility ([1]; pH 7): Quasireversible |
| – | 0.55(1) VNHE | Quasireversible | – | ~10 mM | 0.8(1) | 0.52(3) | 0.9(1) | 900 mM | – | 0.24(1) VNHE | O=C1C=C(S(=O)(=O)O)c2ccccc2C1=O [NQ(1,2)S, 1,2-naphtoquinone-4-sulfonate sodium] | – |
| – | 0.86(3) VNHE | Quasireversible | – | – | 0.4(1) | – | – | – | – | 0.7 VNHE | O=S(=O)(O)c1cc(O)c(O)c(S(=O)(=O)O)c1 [HQ(1,2)DS, 4,5-dihydroxy-1,3-benzenedisulfonate disodium monohydrate] | reduction/oxidation peak ratio ([1]; all pH values): significantly low; increase of E0' relative to ortho-BQ ([1]; two sulfonate groups): 50 mV |
| – | 0.394(1) VNHE | – | < 10 mM | 10 mM (≈ 2090 µg/mL) | 1.3(1) | 1.2(4) | 0.8(2) | < 10 mM | Quasireversble | – | O=C1C(O)=C(Cl)C(=O)C(O)=C1Cl [BQ(1,4)DHDCl, 2,5-dichloro-3,6-1,4-benzoquinone] | aqueous solubility, qualitative [2, 7]: insoluble in water; change of E0' from acidic (pH 0) to alkaline (pH 13) [1]: 0.99 V; Electrochemical reversibility ([1]; pH 0): Reversible; pH dependence (slope) of E0' [1]: −76 mV/pH unit; Electrochemical reversibility ([1]; pH 7): Quasireversble |
| -0.05(6) VNHE | 0.707(4) VNHE | Quasireversible | – | 10 mM (≈ 1820 µg/mL) | 0.5(1) | 0.21(7) | 0.2(1) | – | – | 0.23(7) VNHE | Oc1c(F)c(F)c(O)c(F)c1F [HQ(1,4)TF, 1,2,4,5-tetrafluoro-3,6-dihydroxybenzene] | – |
| Unstable | 0.403(3) VNHE | – | – | – | – | – | – | – | – | Unstable | c1ccc2nc3ccccc3nc2c1 [Phenazine] | solubility [2]: < 10 mM; solubility [2, 8]: 10 mM (≈ 1800 µg/mL); solubility [2, 9]: < 10 mM |
| – | 0.200(4) VNHE | – | < 10 mM | < 10 mM | – | – | 1.2(1) | – | Reversible | – | O=C1c2c(O)ccc(O)c2C(=O)c2c(O)ccc(O)c21 [AQTH(1,4), 1,4,5,8-tetrahydroxy-9,10-anthraquinone] | solubility compared to AQDH(1,4) ([2]; alkaline): only half the solubility; E0' more negative compared to AQDH(1,4) ([1]; alkaline): approximately 100 mV |
| 0.11(1) VNHE | 0.669(5) VNHE | – | – | – | 2.3(1) | 1.2(3) | – | – | – | 0.433(7) VNHE | Oc1ccc(O)cc1 [HQ(1,4), Para hydroquinone] | Electrochemical reversibility ([1]; pH 0): Quasireversible; Electrochemical reversibility ([1]; pH 7): Quasireversible |
| -0.69(1) VNHE | -0.084(5) VNHE | – | < 10 mM | < 10 mM | – | – | 0.96(6) | – | Reversible | -0.414(3) VNHE | O=C1c2ccc(O)c(O)c2C(=O)c2c(O)ccc(O)c21 [AQTH(1,2), 1,2,5,8-tetrahydroxy-9,10-anthraquinone] | – |
| Unstable | -0.013(3) VNHE | – | 70 mM (≈ 8690 µg/mL) | 80 mM (≈ 9930 µg/mL) | – | – | – | 900 mM (≈ 112000 µg/mL) | – | Unstable | O=C(O)c1cnccn1 [Pyrazine-2-carboxylic acid] | – |
| – | – | – | < 10 mM | < 10 mM | – | – | 0.79(9) | – | Quasireversible | – | O=C1c2cccc(O)c2C(=O)c2cccc(O)c21 [AQDH(1,5), 1,5-dihydroxy-9,10-anthraquinone] | – |
| ≈ 0.4 VNHE | – | electrochemically irreversible | < 10 mM | < 10 mM | – | – | – | < 10 mM | – | – | O=C1C(Cl)=C(Cl)C(=O)c2c(O)ccc(O)c21 [NQ(1,4)DHDCl, 2,3-dichloro-5,8-dihydroxy-1,4-naphtoquinone] | aqueous solubility, qualitative [2, 7]: insoluble in water |

| Compound | formal redox potential E0' ([1]; pH 13 (1 M NaOH)) | formal redox potential E0' [1, 3] | Electrochemical reversibility ([1]; pH not specified) | solubility [2, 4] | solubility [2, 5] | Peak current ratio ([1]; pH 0) | Peak current ratio ([1]; pH 7) | Peak current ratio ([1]; pH 13) | solubility [2, 6] | Electrochemical reversibility ([1]; pH 13) | formal redox potential E0' ([1]; pH 7 (0.5 M phosphate buffer)) | also measured |
| --- | --- | --- | --- | --- | --- | --- | --- | --- | --- | --- | --- | --- |
| O=C1C=CC(=O)C=C1 [para-BQ] | 0.11 VNHE | – | – | – | – | – | – | – | – | – | – | pH dependence (slope) of E0' [1]: −45 mV/pH unit |
| O=S(=O)([O-])c1cc(O)ccc1O.[K+] [HQ(1,4)S, 2,5-dihydroxybenzenesulfonate potassium] | -0.07(1) VNHE | 0.664(8) VNHE | Quasireversible | – | – | – | – | – | – | – | 0.471(4) VNHE | – |
| Oc1c(Cl)c(Cl)c(O)c(Cl)c1Cl [HQ(1,4)TCl, Tetrachloro hydroquinone] | 0.08(1) VNHE | 0.70(1) VNHE | Quasireversible | – | – | 0.72(5) | 1.1(2) | – | – | – | 0.277(1) VNHE | aqueous solubility, qualitative [2]: insoluble in water; solubility [2]: < 10 mM; solubility [2, 8]: < 10 mM; solubility [2, 9]: < 10 mM |
| CC(C)=CCC1=C(O)C(=O)c2ccccc2C1=O [NQ(1,4)HB, 2-hydroxy-3-(3-methyl-2-butenyl)-1,4-naphthoquinone] | – | 0.333(3) VNHE | – | < 10 mM | < 10 mM | – | 1.08(5) | 0.38(4) | 700 mM (≈ 170000 µg/mL) | Quasireversible | – | change of E0' from acidic (pH 0) to alkaline (pH 13) [1]: 0.8 V; Electrochemical reversibility ([1]; pH 0): Quasireversible; pH dependence (slope) of E0' [1]: 67 mV/pH unit; Electrochemical reversibility ([1]; pH 7): Reversible |
| O=C1C(O)=C(O)C(=O)C(O)=C1O [BQ(1,4)TH, Tetrahydroxy-1,4-benzoquinone] | – | 0.28 VNHE | completely loses its electrochemical activity | < 10 mM | < 10 mM | – | – | – | < 10 mM | Quasireversible | – | Electrochemical reversibility ([1]; pH 6.2): Quasireversible |
| Cc1cc(O)c2c(c1)C(=O)c1cc(O)cc(O)c1C2=O [AQTrHM, 1,3,8-trihydroxy-6-methylanthracene-9,10-dione] | -0.63(1) VNHE | -0.04(1) VNHE | Reversible | < 10 mM | < 10 mM | 0.15(4) | 0.19(6) | 0.2(2) | – | – | -0.386(2) VNHE | – |
